Reference: US8252832B2, “Kinesin inhibitors as cancer therapeutics” (Novartis AG, priority 2007, dated 2012)
Where two headings read alike, the source gives them in different places.

How the values were obtained:
Assay in all cases: CellTiter-Glo, NCI60 panel
Format in all cases: cell-based
A498 = details: Renal; for GI50: Homo sapiens
From the text: (§1) Identification of tumor types that are the most sensitive to the KSP inhibitors of the present invention can be accomplished using an unbiased approach that uses several cell-based assays. The assays chosen were as follows: • CellTiter-Glo®. This is an assay designed to measure ATP concentration in a cell culture, and can be correlated to cell number. Briefly CellTiter-Glo® (Promega Corporation) is a homogeneous method using the single CellTiter-Glo® reagent to detect ATP wherein ATP in the assay drives the activity of a thermostable luciferase to create a luminescent signal which can then be measured and correlated with the number of viable cells. Briefly, for adherent cells, 1,000 to 5,000 cells/well were plated in 96-well plates (100 μl/well) and let to adhere for 24 hours before being treated with drug. For non-adherent cells, 1,000 to 10,000 cells/well were plated in 96-well plates (100 μl/well) and immediately treated with drug. Drug dilutions were prepared in DMSO at 1000 times the final concentration. These dilutions were then diluted 1/100 in growth media before being added to the cells (11 μl/well) to achieve the desired final concentration. After 48 h in a 37° C. tissue culture incubator, the plates were processed for the CellTiter-Glo®assay according to the manufacturer's instructions. Protocol for a 72 hour cell proliferation assay: The 72 hour assay was performed the same way as the 48 hour assay except for the following modifications: For adherent cells, 500 to 5,000 cells/well were plated in 96-well plates (90 μl/well cell growth media) and left to adhere for 24 hours before being treated with drug. For non-adherent cells, 1,000 to 10,000 cells/well were plated in 96-well plates (90 μl/well cell growth media) and immediately treated with drug. Data values presented represent the concentration of test compound required for a 50% reduction in growth. • LDH release. The Cytotoxicity Detection KitPLUS (LDH) assay (Roche Diagnostics, Manheim, Germany) measures the amount of LDH released in the media by dying cells; LDH catalyzes the conversion of lactate into pyruvate. The enzymatic reaction is coupled to a chemical reaction that uses a tetrazolium salt to form a formazan that is red and can be detected by its absorbance at 490 nm. This assay measures the amount of cell death after drug treatment. Cells were plated at 10,000 cells/well in 96-well plates (100 μl/well). Adherent cells were let to adhere for 24 hours before being treated with drug, whereas non-adherent cells were immediately treated with drug. Drug dilutions were prepared in DMSO at 1000 times the final concentration. These dilutions were then diluted 1/100 in growth media before being added to the cells (11 μl/well) to achieve the desired final concentration. After 48 h in a 37° C. tissue culture incubator, the plates were processed for the Cytotoxicity Detection KitPLUS (LDH) assay according to the manufacturer's instructions. The media only values were subtracted from all the data points before analysis. Data values presented correspond to the compound concentration wherein LDH output is at half maximal level. • Caspase-Glo® 3/7. The Caspase-Glo® 3/7 Assay (Promega Corporation) is a homogeneous luminescent assay that measures caspase-3/7 activities. The assay provides a proluminescent caspase-3/7 DEVD-aminoluciferin substrate and a thermostable luciferase in a reagent optimized for caspase-3/7 activity, luciferase activity and cell lysis. Adding the single Caspase-Glo® 3/7 Reagent results in cell lysis, followed by caspase cleavage of the substrate. This liberates free aminoluciferin, which is consumed by the luciferase, generating a luminescent signal. The signal is proportional to caspase-3/7 activity. Data values presented correspond to the compound concentration wherein caspase 3/7 activity is at half maximal level. […]

HCC-2998 = details: Colon; for GI50: Homo sapiens
From the text: as §1

HOP-62 = details: NSCL; for GI50: Homo sapiens
From the text: as §1

HOP-92 = details: NSCL; for GI50: Homo sapiens
From the text: as §1

HS 578T = details: Breast; for GI50: Homo sapiens
From the text: as §1

IGROV1 = details: for GI50: Homo sapiens, IGROV-1, Ovarian
From the text: as §1

MDA-MB-435 = details: Melanoma; for GI50: Homo sapiens
From the text: as §1

NCI-H460 = details: NSCL; for GI50: Homo sapiens
From the text: as §1

OVCAR-4 = details: Ovarian; for GI50: Homo sapiens
From the text: as §1

SF-295 = details: CNS; for GI50: Homo sapiens
From the text: as §1

SK-MEL-28 = details: Melanoma; for GI50: Homo sapiens
From the text: as §1

SK-MEL-2 = details: Melanoma; for GI50: Homo sapiens
From the text: as §1

SN12C = details: Renal; for GI50: Homo sapiens
From the text: as §1

SNB-75 = details: CNS; for GI50: Homo sapiens
From the text: as §1

SW-620 = details: Colon; for GI50: Homo sapiens
From the text: as §1

UO-31 = details: Renal; for GI50: Homo sapiens
From the text: as §1

[1] = GI50 in nM, read-out: Log(GI50) (converted)

CC(C)(C)[C@H](c1nc(-c2cc(F)ccc2F)cn1Cc1ccccc1)N(CC[C@H](N)CF)C(=O)CO [Compound IIa]
GI50 (A498; [1]): 10 nM
GI50 (A498; read-out: GI50): 10 nM
Differential vs mean Log(GI50) (A498): −0.669
Differential vs mean Log(GI50) (HCC-2998): 0.547
GI50 (HCC-2998; [1]): 0.608 nM
GI50 (HCC-2998; read-out: GI50): 0.608 nM
GI50 (HOP-62; [1]): 10 nM
GI50 (HOP-62; read-out: GI50): 10 nM
Differential vs mean Log(GI50) (HOP-62): −0.669
GI50 (HOP-92; [1]): 10 nM
GI50 (HOP-92; read-out: GI50): 10 nM
Differential vs mean Log(GI50) (HOP-92): −0.669
Differential vs mean Log(GI50) (HS 578T): 0.989
GI50 (HS 578T; [1]): 0.22 nM
GI50 (HS 578T; read-out: GI50): 0.22 nM
GI50 (IGROV1; [1]): 10 nM
GI50 (IGROV1; read-out: GI50): 10 nM
Differential vs mean Log(GI50) (IGROV1; Ovarian): −0.669
GI50 (MDA-MB-435; [1]): 0.152 nM
GI50 (MDA-MB-435; read-out: GI50): 0.152 nM
Differential vs mean Log(GI50) (MDA-MB-435): 1.149
GI50 (NCI-H460; [1]): 0.378 nM
GI50 (NCI-H460; read-out: GI50): 0.378 nM
Differential vs mean Log(GI50) (NCI-H460): 0.754
GI50 (OVCAR-4; [1]): 10 nM
GI50 (OVCAR-4; read-out: GI50): 10 nM
Differential vs mean Log(GI50) (OVCAR-4): −0.669
Differential vs mean Log(GI50) (SF-295): 1.122
GI50 (SF-295; [1]): 0.162 nM
GI50 (SF-295; read-out: GI50): 0.162 nM
GI50 (SK-MEL-28; [1]): 10 nM
GI50 (SK-MEL-28; read-out: GI50): 10 nM
Differential vs mean Log(GI50) (SK-MEL-28): −0.669
GI50 (SK-MEL-2; [1]): 2.77 nM
GI50 (SK-MEL-2; read-out: GI50): 2.77 nM
Differential vs mean Log(GI50) (SK-MEL-2): −0.112
GI50 (SN12C; [1]): 10 nM
GI50 (SN12C; read-out: GI50): 10 nM
Differential vs mean Log(GI50) (SN12C): −0.669
Differential vs mean Log(GI50) (SNB-75): −0.669
GI50 (SNB-75; [1]): 10 nM
GI50 (SNB-75; read-out: GI50): 10 nM
Differential vs mean Log(GI50) (SW-620): 0.958
GI50 (SW-620; [1]): 0.236 nM
GI50 (SW-620; read-out: GI50): 0.236 nM
GI50 (UO-31; [1]): 10 nM
GI50 (UO-31; read-out: GI50): 10 nM
Differential vs mean Log(GI50) (UO-31): −0.669
